Like-named read-outs stand apart in the source and are kept apart here.

In general, IC50 refers to the concentration at which inhibition is half-maximal.

In one test the target is T1, aggrecanase-1 (Homo sapiens, UniProt O75173).
T1 sequence (O75173 213-837): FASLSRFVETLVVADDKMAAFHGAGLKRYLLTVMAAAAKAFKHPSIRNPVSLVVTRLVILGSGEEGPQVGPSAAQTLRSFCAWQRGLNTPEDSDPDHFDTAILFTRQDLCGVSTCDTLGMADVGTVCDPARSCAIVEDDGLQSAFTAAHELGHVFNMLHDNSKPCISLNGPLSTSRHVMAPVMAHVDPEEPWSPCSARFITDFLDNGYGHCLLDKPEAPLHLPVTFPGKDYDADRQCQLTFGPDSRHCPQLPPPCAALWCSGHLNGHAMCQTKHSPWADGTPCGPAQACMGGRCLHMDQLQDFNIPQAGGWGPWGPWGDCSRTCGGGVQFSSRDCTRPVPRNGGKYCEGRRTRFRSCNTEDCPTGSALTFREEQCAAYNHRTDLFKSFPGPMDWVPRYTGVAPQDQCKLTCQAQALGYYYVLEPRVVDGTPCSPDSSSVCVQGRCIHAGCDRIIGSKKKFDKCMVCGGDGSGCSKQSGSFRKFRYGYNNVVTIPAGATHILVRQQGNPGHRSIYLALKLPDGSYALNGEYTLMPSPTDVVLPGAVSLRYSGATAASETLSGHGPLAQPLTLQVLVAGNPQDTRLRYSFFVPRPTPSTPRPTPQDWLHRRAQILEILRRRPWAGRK
The test is described as follows: Aggrecanase-1 inhibitory action (Particle Assay, GAG release from aggrecan-containing polyacrylamide particles). Type of test: biochemical. Here is the method: Particle Assay was used for determination of aggrecanase activity.
(§1) The enzyme and substrate were diluted with Tris-HCl buffer, and test compounds were diluted with dimethyl sulfoxide (DMSO).
Test compounds and the enzyme were added into 96-well plate, and polyacrylamide particles containing aggrecan were added as a substrate and the mixture was incubated at 37° C. for 15 hr.
After incubation, the supernatant was transferred to another plate, and mixed with 1,9-dimethylmethylene blue. The absorbence at 595 nm was measured to quantify the amount of glycosaminoglycan (GAG) released in the reaction supernatant. Whale chondroitin sulfate was used as the standard of GAG. The inhibitory activity of the compound in each well (%) was calculated based on the values of enzyme-free well and inhibitor-free well. The inhibitory activity of the compound was represented as […] (μM).

The target in a further test is T2, MMP-1 (Homo sapiens, UniProt P03956).
T2 sequence (P03956 100-469): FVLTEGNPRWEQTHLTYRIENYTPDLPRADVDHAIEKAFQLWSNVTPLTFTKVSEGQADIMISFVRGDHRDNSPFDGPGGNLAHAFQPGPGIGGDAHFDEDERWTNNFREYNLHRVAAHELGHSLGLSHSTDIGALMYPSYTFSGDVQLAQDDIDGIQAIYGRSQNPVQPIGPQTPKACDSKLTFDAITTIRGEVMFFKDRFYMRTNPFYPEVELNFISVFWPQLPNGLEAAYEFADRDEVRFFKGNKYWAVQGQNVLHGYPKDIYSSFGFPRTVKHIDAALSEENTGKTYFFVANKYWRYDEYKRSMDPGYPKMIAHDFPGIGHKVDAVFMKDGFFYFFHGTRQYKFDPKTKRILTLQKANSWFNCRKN
Description: MMP-1 inhibitory action (Type I collagen Activity Measurement kit, FITC-labeled collagen type I). Type of test: biochemical. The conditions noted are these: MMP-1 inhibitory action, FITC-labeled collagen type I, 37° C. for 3 hr; read-out: IC50 MMP1 (Experimental Example 2). As to the method:
For MMP-1 Assay, Type I collagen Activity Measurement kit (YAGAI YU-72013) modified to a 96-well plate format was used.
The principle of the kit is based on the property of collagen that becomes soluble in ethanol after being cleaved by MMP-1.
as §1
The enzyme and test compounds were added into 96-well plate, and fluorescein isothiocianate (FITC)-labeled collagen type I was added as a substrate and the mixture was incubated at 37° C. for 3 hr.
The reaction was terminated by addition of Tris-HCl buffer containing ethanol. After centrifugation, the supernatant containing denatured substrate was transferred to another 96-well plate. The collagenase activity of MMP-1 was determined by measuring FITC fluorescence intensity (excitation wavelength 485 nm, emission wavelength 530 nm) of each well. The inhibitory activity of the compound in each well (%) was calculated based on the values of enzyme-free well and inhibitor-free well. The inhibitory activity of the compound was represented as IC50 (μM).

[1] abbreviates: aggrecanase-1 inhibitory action, read-out: IC50 AG1 (Experimental Example 1).
The mark [2] stands for this setting: Experimental Example 1, read-out: IC50 AG1.

Take `O=C(O)[C@]1(NS(=O)(=O)c2ccc(-c3ccc(Cl)cc3)cc2)C[C@@H]1c1ccccc1` [Example 1, (1S,2R)-1-(4′-Chlorobiphenyl-4-sulfonylamino)-2-phenylcyclopropanecarboxylic acid]: the IC50 is below 1 µM at aggrecanase-1 (setting [1]) and at least 1 µM at MMP-1.
For `COc1ccccc1C1CC1(NS(=O)(=O)c1ccc(-c2ccc(Cl)cc2)s1)C(=O)O` (stereo not drawn) [Example 1-4], the IC50 is below 0.1 µM on aggrecanase-1 (setting [1]) and at least 1 µM at MMP-1.
On the same counts, the results for `O=C(O)[C@@]1(NS(=O)(=O)c2ccc(-c3ccc(Cl)cc3)cc2)C[C@H]1c1ccccc1` [Example 1-7] are below 1 µM and at least 10 µM.
Take `COc1ccccc1C1CC1(NS(=O)(=O)c1ccc(-c2ccc(Cl)cc2)cc1)C(=O)O` (stereo not drawn) [Example 1-13]: the IC50 at aggrecanase-1 (setting [1]) is below 1 µM; on MMP-1 it was at least 1 µM.
Turning to `O=C(O)C1(NS(=O)(=O)c2ccc(-c3ccc(Cl)cc3)cc2)CC1c1ccccc1Oc1ccccc1` (stereo not drawn) [Example 1-14], the values for the IC50 at aggrecanase-1 (setting [1]) and at MMP-1 were below 1 µM and at least 10 µM, respectively.
On the same counts, the results for `CN(C)c1cccc(C2CC2(NS(=O)(=O)c2ccc(-c3ccc(Cl)cc3)cc2)C(=O)O)c1` (stereo not drawn) [Example 1-21] are below 1 µM and at least 1 µM.
On the same counts, the results for `O=C(O)C1(NS(=O)(=O)c2ccc(-c3ccc(Br)cc3)cc2)CC1c1ccccc1` (stereo not drawn) [Example 1-31] are below 1 µM and at least 10 µM.
The like results for `CC(C)(C)OC(=O)N1CCC(Nc2cccc(C3CC3(NS(=O)(=O)c3ccc(-c4ccc(Cl)cc4)cc3)C(=O)O)c2)CC1` (stereo not drawn) [Example 1-42] were, in that order, below 1 µM and at least 1 µM.
`O=C(O)C1(NS(=O)(=O)c2ccc(-c3ccc(Cl)cc3)cc2)CC1c1cccc(NCc2ccccc2)c1` (stereo not drawn) [Example 1-43]: the IC50 on aggrecanase-1 (setting [1]) is below 1 µM; on MMP-1 it was at least 1 µM.
As to `O=C(O)C1(NS(=O)(=O)c2ccc(-c3ccc(Cl)cc3)cc2)CC1c1cccc(O)c1` (stereo not drawn) [Example 1-44], the IC50 is below 1 µM at aggrecanase-1 (setting [1]) and at least 1 µM at MMP-1.
As for `O=C(O)C1(NS(=O)(=O)c2ccc(OCc3ccc(Cl)cc3Cl)cc2)CC1c1ccccc1` (stereo not drawn) [Example 1-65], the IC50 at MMP-1 is at least 10 µM.
On to `O=C(O)C1(NS(=O)(=O)c2ccc3c(c2)Cc2cc(F)ccc2-3)CC1c1ccccc1` (stereo not drawn) [Example 1-80], for which the IC50 was below 0.1 µM on aggrecanase-1 (setting [1]) and at least 10 µM at MMP-1.
`CN(C)Cc1cccc(C2CC2(NS(=O)(=O)c2ccc(-c3ccc(Cl)cc3)s2)C(=O)O)c1` (stereo not drawn) [Example 1-98]: the IC50 was below 1 µM on aggrecanase-1 (setting [1]) and at least 10 µM on MMP-1.
The like results for `O=C(O)[C@]1(NS(=O)(=O)c2cnc(-c3ccc(Cl)cc3)s2)C[C@@H]1c1ccccc1` [Example 1-100] were, in that order, below 1 µM and at least 1 µM.
The like results for `Cn1ccnc1CNc1cccc(C2CC2(NS(=O)(=O)c2ccc(-c3ccc(Cl)cc3)cc2)C(=O)O)c1` (stereo not drawn) [Example 1-101] were, in that order, below 1 µM and at least 10 µM.
The like results for `CN1CCC(N(C)Cc2cccc(C3CC3(NS(=O)(=O)c3ccc(-c4ccc(Cl)cc4)s3)C(=O)O)c2)CC1` (stereo not drawn) [Example 1-104] were, in that order, below 1 µM and at least 10 µM.
`O=C(CO)Nc1cccc(C2CC2(NS(=O)(=O)c2ccc(-c3ccc(Cl)cc3)cc2)C(=O)O)c1` (stereo not drawn) [Example 1-105]: the IC50 is below 1 µM on aggrecanase-1 (setting [1]) and at least 1 µM at MMP-1.
Regarding `O=C(O)[C@]1(NS(=O)(=O)c2ccc(-c3cccc(Cl)c3)s2)C[C@@H]1c1ccccc1` [Example 1-110], the IC50 on aggrecanase-1 (setting [1]) was below 1 µM; at MMP-1, at least 1 µM.
On the same counts, the results for `O=C(O)C1(NS(=O)(=O)c2ccc(-c3ccc(Cl)cc3)cc2)CC1c1cccc(NCc2ncc[nH]2)c1` (stereo not drawn) [Example 1-112] are below 1 µM and at least 1 µM.
As to `CN(C)C(=O)COc1cccc(C2CC2(NS(=O)(=O)c2ccc(-c3ccc(Cl)cc3)cc2)C(=O)O)c1` (stereo not drawn) [Example 1-114], the IC50 at aggrecanase-1 (setting [1]) was below 1 µM; at MMP-1, at least 1 µM.
As to `COc1cccc(C2CC2(NS(=O)(=O)c2ccc(-c3ccc(Cl)cc3)s2)C(=O)O)c1` (stereo not drawn) [Example 1-115], the IC50 at aggrecanase-1 (setting [1]) is below 1 µM; at MMP-1, at least 1 µM.
On the same counts, the results for `O=C(O)C1(NS(=O)(=O)c2ccc(-c3ccc(Cl)cc3)s2)CC1c1cccc(O)c1` (stereo not drawn) [Example 1-116] are below 1 µM and at least 1 µM.
The like results for `NC(=O)COc1cccc(C2CC2(NS(=O)(=O)c2ccc(-c3ccc(Cl)cc3)cc2)C(=O)O)c1` (stereo not drawn) [Example 1-117] were, in that order, below 0.1 µM and at least 1 µM.
The like results for `CNC(=O)COc1cccc(C2CC2(NS(=O)(=O)c2ccc(-c3ccc(Cl)cc3)cc2)C(=O)O)c1` (stereo not drawn) [Example 1-118] were, in that order, below 0.1 µM and at least 1 µM.
For the compound `O=C(O)[C@]1(NS(=O)(=O)c2ccc(-c3ccc(Cl)cc3Cl)s2)C[C@@H]1c1ccccc1` [Example 1-125], the IC50 on aggrecanase-1 (setting [1]) was below 0.1 µM; on MMP-1 it was at least 10 µM.
On to `NC(=O)Nc1cccc(C2CC2(NS(=O)(=O)c2ccc(-c3ccc(Cl)cc3)s2)C(=O)O)c1` (stereo not drawn) [Example 1-135], for which the IC50 is below 1 µM at aggrecanase-1 (setting [1]) and at least 1 µM on MMP-1.
On the same counts, the results for `NC(=O)c1cccc(C2CC2(NS(=O)(=O)c2ccc(-c3ccc(Cl)cc3)s2)C(=O)O)c1` (stereo not drawn) [Example 1-137] are below 1 µM and at least 1 µM.
With `O=C(COc1ccccc1C1CC1(NS(=O)(=O)c1ccc(-c2ccc(Cl)cc2)s1)C(=O)O)NCc1ccccc1` (stereo not drawn) [Example 1-145], the IC50 on aggrecanase-1 (setting [1]) is below 1 µM; at MMP-1, at least 10 µM.
In the case of `O=C(COc1ccccc1C1CC1(NS(=O)(=O)c1ccc(-c2ccc(Cl)cc2)s1)C(=O)O)N1CCOCC1` (stereo not drawn) [Example 1-146], the IC50 at aggrecanase-1 (setting [1]) was below 0.1 µM; on MMP-1, at least 10 µM.
The like results for `CC(C)NC(=O)COc1ccccc1C1CC1(NS(=O)(=O)c1ccc(-c2ccc(Cl)cc2)s1)C(=O)O` (stereo not drawn) [Example 1-147] were, in that order, below 1 µM and at least 10 µM.
On the same counts, the results for `Cc1cnc(-c2ccc(S(=O)(=O)N[C@@]3(C(=O)O)C[C@@H]3c3ccccc3)s2)s1` [Example 2-26] are below 1 µM and at least 10 µM.
On the same counts, the results for `O=C(O)C1(NS(=O)(=O)c2ccc(-c3ccc(Cl)cc3)s2)CC1c1cccnc1` (stereo not drawn) [Example 2-70] are below 1 µM and at least 10 µM.
With `O=C1O[C@H]([C@H]2C[C@@]2(NS(=O)(=O)c2ccc(-c3ccc(Cl)cc3)s2)C(=O)O)CN1Cc1ccccc1` [Example 2-138], at aggrecanase-1 (setting [1]), the IC50 is at least 10 µM.
For the compound `C[C@]1(c2ccccc2)C[C@@]1(NS(=O)(=O)c1ccc(-c2cccc(OCCO)c2)s1)C(=O)O` [Example 2-575], the IC50 at aggrecanase-1 (setting [2]) was at least 1 µM.
As for `C[C@]1(c2ccccc2)C[C@@]1(NS(=O)(=O)c1ccc(-c2cccc(OCCCO)c2)s1)C(=O)O` [Example 2-576], at aggrecanase-1 (setting [2]), the IC50 is at least 1 µM.
Still for that read-out and setting: as for `COc1ccc(-c2ccc(S(=O)(=O)N[C@@]3(C(=O)O)C[C@]3(C)c3ccccc3)s2)cc1CO` [Example 2-592], the figure is at least 1 µM.
The same measure, in the same setting: for `COc1cccc([C@@]2(C)C[C@@]2(NS(=O)(=O)c2ccc(-c3cc(C(F)(F)F)on3)s2)C(=O)O)c1` [Example 2-624] the value was below 0.1 µM; for `CC1[C@](C)(c2ccccc2)[C@]1(NS(=O)(=O)c1ccc(-c2cc(C(C)(F)F)on2)s1)C(=O)O` (stereo partly drawn) [Example 2-625], below 0.1 µM.

(Values after patent US20080261994A1, “CYCLOPROPANE COMPOUNDS AND PHARMACEUTICAL USE THEREOF” (Japan Tobacco Inc., priority 2003, published 2008).)
